Consider three compounds from patent US20160374944A1, “COMPOSITIONS AND METHODS FOR TREATING AND PREVENTING CANCER BY TARGETING AND INHIBITING CANCER STEM CELLS” (priority 2011, published 2016).

Experiment [1] concerns TCF/LEF activity in pancreatic CSCs. The experiment is described as follows: TCF/LEF responsive reporter. It counts as cell-based, human. The protocol: (A) Pancreatic CSCs were treated with EGCG (0-60 μM) for 48 h. At the end of incubation period, the expression of Snail, ZEB1 and Slug was measured by q-RT-PCR. […] (B) Transwell migration assay. Pancreatic CSCs were plated in the top chamber of the transwell and treated with EGCG (0-60 μM) for 24 h. Cells migrated to the lower chambered were fixed with methanol, stained with crystal violet and counted. […] (C) Matrigel invasion assay. CSCs were plated onto the Matrigel-coated membrane in the top chamber of the transwell and treated with EGCG (0-60 μM) for 48 h. Cells invaded to the lower chambered were fixed with methanol, stained with crystal violet and counted. […] (D) Effects of EGCG on TCF-1/LEF activity. […] Transduced CSCs were treated with EGCG (0-60) for 48 h and the GFP fluorescence was measured. […] Cell viability was measured by trypan blue assay. […] At the end of incubation period, colonies were counted. […] Cells invaded to the lower chambered were fixed with methanol, stained with crystal violet and counted. […] Cells migrated to the lower chambered were fixed with methanol, stained with crystal violet and counted. […] Apoptosis was measured by TUNEL assay. […] Transduced CSCs were treated with EGCG (40 μM) with or without quercetin (20 μM) for 48 hrs and the luciferase activity was measured.

The subject of experiment [2] is TCF/LEF-1 reporter activity in prostate CSCs. The experiment is described as follows: TCF/LEF1-responsive dual luciferase reporter. It counts as cell-based, human. The settings on record: rottlerin 0-2 μM, 24 h, dual luciferase assay. The procedure: (§1) FIG. 17 graphs showing the regulation of Shh, Notch and TGFβ pathways by rottlerin. […] The expression of Patched-1, Patched-2, SMO, Gli1 and Gli2 was measured by qRT-PCR. […] Data were normalized with GAPDH. (D) Prostate CSCs were treated with rottlerin (0-1 μM) for 24 h. The expression of Notch1, Notch3 and JAG1 was measured by qRT-PCR. (E) TCF/LEF-1, Gli and Notch reporter activities. Prostate CSCs were transduced with a mixture of TCF/LEF1-, Gli-, or Notch-responsive firefly luciferase construct and Renilla luciferase construct (40:1) along with lipofectamine. After transduction, medium was changed and CSCs were treated with rottlerin (0-2 μM) for 24 h. […] (F) Immunofluorescence analysis of Gli1 and Gli2 expression in prostate CSCs. Green=Gli1 or Gli2; red=nucleus.
For orientation: Reporter assays use an easily measured gene product as a stand-in for the process of interest.

Experiment [3] has as its system Prostate CSCs. The experiment in a line: gene expression by qRT-PCR. It counts as cell-based, human. The conditions noted are these: 24 h. The protocol: FIG. 15 is a graph showing that rottlerin inhibits the expression of survivin, XIAP, Bcl-2 and Bcl-XL in prostate CSCs. Prostate CSCs were treated with rottlerin (0-2 μM) for 24 h, and the expression of survivin, XIAP, Bcl-2 and Bcl-XL was measured by the q-RT-PCR. […] Data were normalized with GAPDH.
FIG. 16 is a graph showing the regulation by rottlerin of cMyc, Nanog, Oct3/4 and Sox-2 in prostate CSCs. Prostate CSCs were treated with rottlerin (0-1 μM) for 24 h. The expression of cMyc, Nanog, Oct3/4 and Sox-2 was measured by qRT-PCR. […] Data were normalized with GAPDH.
as §1
In general terms: In qPCR the cycle at which signal appears reflects the starting amount.

Experiment [4] relates to Prostate CSCs. The experiment in a line: prostate CSCs xenografted sub-cutaneously in NSG mice. The conditions noted are these: NOD/SCID/IL2R gamma mice, 20 mg/kg, 6 weeks. It counts as in vivo. The procedure: (A) Pancreatic CSCs were orthotopically implanted in pancreas of NSG mice, and treated with or without sulforaphane 20 mg/kg, for 6 weeks, (B and C) Pancreatic CSCs were xenografted sub-cutaneously in NSG mice, and treated with or without rottlerin and embelin 20 mg/kg, for 6 weeks, (D and E) Prostate CSCs were xenografted sub-cutaneously in NSG mice, and treated with or without rottlerin and embelin 20 mg/kg, for 6 weeks. At the end of the treatment, weights of tumors in treated mice were compared with control mice.

In experiment [5] the test system is Notch reporter activity in prostate CSCs. The experiment in a line: Notch-responsive dual luciferase reporter. It counts as cell-based, human. The conditions noted are these: rottlerin 0-2 μM, 24 h, dual luciferase assay. The procedure:
as §1

Experiment [6] deals with Gli reporter activity in prostate CSCs. The experiment is described as follows: Gli-responsive dual luciferase reporter. The settings on record: rottlerin 0-2 μM, 24 h, dual luciferase assay. The experiment is classed as cell-based, human. The protocol:
as §1

For experiment [7], the system named is pancreatic cancer. The conditions noted are these: KrasG12D mice.

`O=C(O[C@@H]1Cc2c(O)cc(O)cc2O[C@@H]1c1cc(O)c(O)c(O)c1)c1cc(O)c(O)c(O)c1` [EGCG, epigallocatechin gallate]: the TCF/LEF activity entry in experiment [1] (EGCG 0-60, 48 h) is “inhibited TCF/LEF activity”. Besides, in experiment [1] (EGCG 40 μM with or without quercetin 20 μM, 48 hrs, luciferase), the TCF/LEF transcriptional activity result is “inhibited”.

`CC(=O)c1c(O)c(C)c(O)c(Cc2c(O)c3c(c(C(=O)/C=C/c4ccccc4)c2O)OC(C)(C)C=C3)c1O` [rottlerin]: the “TCF/LEF1 responsive reporter activity” value in experiment [2] is “inhibited the TCF/LEF1, Gli1 and Notch responsive reporter activities in a dose-dependent manner”. Further, in experiment [3] (normalized with GAPDH), the “expression of Bcl-2” value is “inhibited the expression”, the “expression of Bcl-XL” value is “inhibited the expression”, the “expression of Gli1” value is “inhibited the expression” and the “expression of Gli2” value is reported as “inhibited the expression”. For the same compound, in experiment [3] (normalized with GAPDH), the “expression of Nanog” value is “inhibited the expression”, the “expression of Oct3/4” value is given as “inhibited the expression”, the “expression of Patched-1” value is listed as “inhibited the expression” and the “expression of Patched-2” value is “inhibited the expression”. For the same compound, in experiment [3] (normalized with GAPDH), the “expression of SMO” value was “inhibited the expression”, the “expression of Sox-2” value is “inhibited the expression”, the “expression of XIAP” value is “inhibited the expression” and the “expression of cMyc” value is “inhibited the expression”. The expression of survivin entry in experiment [3] (normalized with GAPDH) is reported as “inhibited the expression”. In addition, in experiment [3] (rottlerin 0-1 μM), the “expression of JAG1” value is listed as “inhibited the expression”, the “expression of Notch1” value is listed as “inhibited the expression” and the “expression of Notch3” value is listed as “inhibited the expression”. The “tumor growth (weights of tumors vs control mice)” value in experiment [4] was “inhibit tumor growth”. Moreover, the “Notch responsive reporter activity” value in experiment [5] was “inhibited the TCF/LEF1, Gli1 and Notch responsive reporter activities in a dose-dependent manner”. In experiment [6], the “Gli responsive reporter activity” value was “inhibited the TCF/LEF1, Gli1 and Notch responsive reporter activities in a dose-dependent manner”.

`C[S+]([O-])CCCCN=C=S` (centres unmarked) [sulforaphane]: the pancreatic cancer progression entry in experiment [7] is reported as “inhibits the growth of pancreatic cancer progression”.
